Data reported in ChEMBL document CHEMBL5674860, “Optimized Dual-Glo Assay to identify co-culture-induced drug vulnerabilities in 3D CRC models” (2024).
Square brackets hold non-standard residues; d marks the D form. Peptide text beside a SMILES is read from it. Arg(Me) = CNC(=N)NCCC[C@H](N)C(=O)O; d4Pal = N[C@H](Cc1ccncc1)C(=O)O; azaGly = NNC(=O)O

How the values were obtained:
Assay type in all cases: functional, Homo sapiens
Set-up in all cases: dose or concentration left out as unconfirmed
Colon cancer organoid [1] = assay: Optimized Dual-Glo assay to identify co-culture induced drug vulnerabilities using donated chemical probes and chemogenomics kinase set in O06 CRC organoid and F06 CAF mono and co-culture. […] Cell viability is reported both mono and co-culture models.
Colon cancer organoid [2] = assay: Optimized Dual-Glo assay to identify co-culture induced drug vulnerabilities using donated chemical probes and chemogenomics kinase set in O20 CRC organoid and F20 CAF mono and co-culture. […] Cell viability is reported both mono and co-culture models.
Colon cancer organoid [3] = assay: Optimized Dual-Glo assay to identify co-culture induced drug vulnerabilities using donated chemical probes and chemogenomics kinase set in O14 CRC organoid and F14 CAF mono and co-culture. […] Cell viability is reported both mono and co-culture models.
[4] = Culture type Co-Culture, Transduced with Lucferase2-P2A-EGFP lentivirus
[5] = Culture type Co-Culture, Transduced with Renilla-dsRed lentivirus
[6] = Culture type Mono-Culture, Transduced with Lucferase2-P2A-EGFP lentivirus
[7] = Culture type Mono-Culture, Transduced with Renilla-dsRed lentivirus

| SMILES | Cell Viability (Colon cancer organoid [1]; [4]) [%] | Cell Viability (Colon cancer organoid [1]; [5]) [%] | Cell Viability (Colon cancer organoid [1]; [6]) [%] | Cell Viability (Colon cancer organoid [1]; [7]) [%] | Cell Viability (Colon cancer organoid [2]; [4]) [%] | Cell Viability (Colon cancer organoid [2]; [5]) [%] | Cell Viability (Colon cancer organoid [2]; [6]) [%] | Cell Viability (Colon cancer organoid [2]; [7]) [%] | Cell Viability (Colon cancer organoid [3]; [4]) [%] | Cell Viability (Colon cancer organoid [3]; [5]) [%] | Cell Viability (Colon cancer organoid [3]; [6]) [%] | Cell Viability (Colon cancer organoid [3]; [7]) [%] |
| --- | --- | --- | --- | --- | --- | --- | --- | --- | --- | --- | --- | --- |
| CNc1cc(Oc2cc(C(=O)Nc3cc(N4CCN(C)CC4)cc(C(F)(F)F)c3)ccc2C)ncn1 | 72.9479 | 75.3319 | 138.287 | 104.785 | 162.082 | 75.5289 | 115.09 | 103.127 | 139.066 | 110.099 | 182.817 | 99.4408 |
| FC(F)c1nc2ccccc2n1-c1nc(N2CCOCC2)nc(N2CCOCC2)n1 [ZSTK-474] | 29.4296 | 101.088 | 21.0208 | 93.8001 | 123.987 | 95.7276 | 79.3506 | 60.5776 | 66.4922 | 94.4439 | 94.5351 | 81.6405 |
| CC(=O)c1c(NS(C)(=O)=O)c2cc(-c3ccc(Cl)cc3)c(-c3ccc(Cl)cc3Cl)nc2n(C)c1=O [MRL-CB1-NC] | 125.408 | 125.307 | 109.863 | 112.651 | 159.821 | 122.581 | 102.28 | 97.0964 | 103.447 | 111.697 | 108.811 | 108.592 |
| Cc1ccc2nc(CNCCCOc3ccccc3)cc(O)c2c1 [UCSF924] | 107.729 | 156.395 | 110.04 | 105.774 | 114.798 | 125.381 | 97.5529 | 90.0539 | 83.703 | 116.782 | 86.6693 | 107.391 |
| CC[C@@H]1CN(C(=O)NCC(F)(F)F)C[C@@H]1c1cnc2cnc3[nH]ccc3n12 [UPADACITINIB] | 104.182 | 86.3482 | 126.811 | 90.1732 | 123.754 | 83.5298 | 89.3672 | 88.6624 | 168.996 | 89.117 | 123.387 | 83.332 |
| CO[C@H]1CNC[C@@H](OCC2CCC(F)(F)CC2)[C@@H]1Nc1ncc(-c2cncc(C)c2)c2cc(C)c(=O)[nH]c12 | 95.0954 | 138.476 | 98.6849 | 128.396 | 171.391 | 122.949 | 125.457 | 102.001 | 95.7966 | 88.7201 | 127.619 | 100.555 |
| C[C@@H]1CC(=O)Nc2cccc(-c3ccc4c(c3)c(-c3cnn(C)c3)nn4C)c2N1 | 96.7982 | 166.358 | 47.1538 | 205.908 | 69.0231 | 148.573 | 48.9735 | 106.497 | 64.6948 | 192.573 | 92.2277 | 159.466 |
| CCn1cc(-c2cccc(C(F)(F)F)c2)c2sc(C(=N)NC3CCS(=O)(=O)CC3)cc2c1=O | 95.4713 | 165.165 | 69.4061 | 200.249 | 60.6992 | 124.144 | 95.8372 | 109.255 | 120.643 | 201.969 | 99.2111 | 135.353 |
| CNC(=N)NCCC[C@H](NC(=O)[C@H](CC(C)C)NC(=O)NNC(=O)[C@H](Cc1ccccc1)NC(=O)[C@H](CO)NC(=O)[C@H](CC(N)=O)NC(=O)[C@@H](Cc1ccncc1)NC(=O)[C@H](N)Cc1ccc(O)cc1)C(=O)N[C@@H](Cc1ccccc1)C(N)=O [KISS1-305] (H-[dY][d4Pal]NSF[azaGly]L[Arg(Me)]F-NH2) | 104.031 | 118.904 | 114.891 | 119.718 | 118.72 | 125.679 | 103.004 | 99.3377 | 143.349 | 104.877 | 85.2761 | 111.321 |
| CCC(=O)N1CCOc2c(cc(-c3ccc(OC)c(OC)c3)cc2OCC2CCCN(C)C2)C1 (stereo unspecified) | 113.999 | 135.091 | 45.0129 | 100.645 | 85.3108 | 123.175 | 108.47 | 90.76 | 85.4363 | 159.816 | 85.7096 | 112.054 |
| CN(C)C(=O)c1sc2nc(N3CCC(S(C)(=O)=O)CC3)cc(C(F)(F)F)c2c1N [BI-5026] | 108.851 | 103.89 | 124.761 | 97.708 | 82.5801 | 112.021 | 96.6036 | 91.1442 | 89.3398 | 95.8994 | 89.8333 | 92.7462 |
| Cc1c(N2CCCC2)nc2ccc(Br)cc2c1C(=O)NC[C@H](CCC(=O)O)c1ccccc1Cl [BAY-6672] | 132.373 | 142.298 | 78.4477 | 99.1733 | 83.0644 | 119.315 | 90.6805 | 98.6918 | 130.472 | 109.165 | 108.929 | 91.644 |
| Cc1nc(N2CC[C@H](O)C2)ncc1-c1cc(C(F)(F)F)cc2[nH]ncc12 | 111.861 | 161.788 | 77.8362 | 94.0965 | 47.2711 | 153.575 | 55.4223 | 100.169 | 63.6905 | 138.157 | 56.4353 | 87.4633 |
| C[C@@H]1CCNC(=O)c2cc3ccc(C(=O)Nc4nc5ccccc5n4CCCN(C)C)cc3n21 | 65.6776 | 63.6239 | 102.952 | 73.3213 | 64.9365 | 147.158 | 51.9591 | 102.286 | 91.1023 | 83.3009 | 101.537 | 86.0489 |
| CC(C)NC(=O)N1CC[C@H](NC2=Nc3cc(F)ccc3N(CC(F)F)c3ccc(Cl)cc32)C1 | 86.0472 | 89.4587 | 81.5326 | 94.1375 | 55.1322 | 142.836 | 58.5304 | 89.934 | 105.089 | 97.5374 | 82.3325 | 100.505 |
| Cc1ccc2[nH]c(CNCCCc3ccncc3)cc(=O)c2c1 [UCSF924NC] | 92.2965 | 82.507 | 94.1046 | 89.0396 | 121.67 | 109.302 | 107.027 | 101.655 | 108.907 | 109.825 | 95.9143 | 99.591 |
| CC(C)Oc1ccc(-c2nn([C@@H](C)c3oc4ccc(F)cc4c(=O)c3-c3cccc(F)c3)c3ncnc(N)c23)cc1F [UMBRALISIB] | 96.678 | 112.425 | 122.966 | 119.327 | 102.839 | 87.858 | 157.324 | 122.853 | 152.127 | 105.235 | 156.597 | 100.314 |
| O=C(NCCCN1CCOC1=O)c1cnc(NCc2cc(Br)ccc2Br)nc1NC1CCCC1 | 110.394 | 154.807 | 109.931 | 185.402 | 103.947 | 94.0994 | 97.7699 | 110.221 | 74.8932 | 125.798 | 157.235 | 136.857 |
